Source: PMC7311950, “Potent Tetrahydroquinolone Eliminates Apicomplexan Parasites” (Frontiers in Cellular and Infection Microbiology, 2020)
Where two headings read alike, the source gives them in different places.

Columns and labels:
T. gondii RPS13Δ = experiment: RPS13Δ infection of interferon γ receptor knockout mice; type: in vivo, Toxoplasma gondii; details: mice to start 5 (Tafenoquine), 5 (JAG21)
Method: In pilot studies, herein, interferon γ receptor knockout mice that were not treated were observed following infection. At 7 and at 14 days following infection, spleen, and liver were removed and immune peroxidase stained. At 14 days a group of mice were treated with anhydrotetracycline and when a subset of these mice died, their spleen and liver were removed and immune peroxidase stained.
As in the pilot studies, this RPS13 Δ parasite also was used to infect interferon γ receptor knockout mice in a treatment study. In this separate study, groups of mice were infected with RPS13 Δ. They were treated with tafenoquine on day−1, or JAG21 for 14 days 2 h after infection, or the two together with tafenoquine on day−1 and JAG21 for the first 14 days, or with diluent only for 14 days, as described above. For the initial 14 days, no tetracycline was administered. After that time tetracycline was administered. Mice were observed each day. At the time they appeared to have substantial illness or at the termination of the experiment they were euthanized, tissues fixed in formalin and stained with hematoxylin and eosin or immunoperoxidase stained and parasite burden was assessed.

[1] = tested on: T. gondii RH-YFP tachyzoites; experiment: In vitro challenge assay, RH strain YFP tachyzoites in HFF; type: cell-based; details: Toxoplasma gondii; RH-YFP tachyzoites in HFF; Figure 1A; read-out: Tachy IC50
Method: RH strain YFP Tachyzoites. Protocol was adapted from Fomovska et al. ([2012a],[b]) for HFF. HFF were cultured on a flat, clear-bottomed, black 96-well plate to 90–100% confluence. IMDM (1x, [+] glutamine, [+] 25 mM HEPES, [+] Phenol red, 10% FBS [Gibco, Denmark]) was removed and replaced with IMDM-C(1x, [+] glutamine, [+] 25 mM HEPES, [–] Phenol red, 10% FBS)[Gibco, Denmark]). RH-YFP, lysed from host cells by passing twice through a 27-gauge needle, were counted, then diluted to 32,000/mL in IMDM-C. HFF were infected with 3200 RH-YFP, then returned to 37°C, CO2 (5%) incubator for 1–2 h for infection. Various concentrations of the compounds in 20 μL IMDM-C were added to each well. There were triplicates for each condition. Controls were pyrimethamine/sulfadiazine (standard treatment), 0.1% DMSO only, HFF only, and untreated cultures of HFF infected with 2-fold dilutions of YFP expressing parasites (called “YFP gradient” to establish amount of color from known numbers of YFP expressing parasites). Cells were incubated at 37°C for 72 h. Plates were read using a fluorimeter (Synergy H4 Hybrid Reader, BioTek) to ascertain amount of relative fluorescence units (RFU) YFP, to measure parasite burden after treatment. Data were collected using Gen5 software with IC50 calculated by graphical analysis in Excel.
An initial screening assay of 10 μM, 1 μM, 100 nM, and 10 nM of the compounds was performed. Compounds were not considered effective or pursued for further analysis if there was no inhibition of tachyzoites at 1 μM. If compounds were effective at 1 μM, another experiment was performed to assess effect at 1 μM, 500, 250, 125, 62.5, and 31.25 nM.

[2] = tested on: P. falciparum strains D6, TM91-C235, W2, C2B; experiment: Malaria SYBR Green I-Based Fluorescence (MSF) assay; type: cell-based; details: Plasmodium falciparum
Method: Malaria potency testing in vitro was performed using 4 different P. falciparum strains, D6, TM91-C235, W2, and C2B. The D6 strain is a drug sensitive strain from Sierra Leone, the TM91-C235 strain is a multi-drug resistant strain from Thailand, the W2 strain is a chloroquine resistant strain from Thailand, and the C2B strain is a multi-drug resistant strain with resistance against atovaquone. These assays were performed as described below.
Compound activity against P. falciparum, was tested using the Malaria SYBR Green I–Based Fluorescence (MSF) Assay. The complete method for performing this microtiter assay is described in previous work published by Plouffe et al. ([2008]) and Johnson et al. ([2007]). In brief, this assay uses the binding of the fluorescent dye SYBR Green I to malaria DNA to measure parasite growth in the presence of 2-fold diluted experimental or control. The relative fluorescence of the intercalated SYBR Green I proportional to parasite growth, and inhibitory compounds will result in lower observed fluorescence compared to untreated parasites.

[3] = tested on: T. gondii mitochondrial membrane potential; experiment: T. gondii mitochondrial membrane potential, safranine method; type: cell-based, Toxoplasma gondii; details: doses as high as 4 μM
Method: The mitochondrial membrane potential was measured by the safranine method according to Vercesi et al. ([1998]). Freshly egressed T. gondii tachyzoites were filtered and washed twice with intracellular buffer (125 mM sucrose, 65 mM KCl, 10 mM HEPES-KOH buffer, pH 7.2, 1 mM MgCl2, and 2.5 mM potassium phosphate). After washing, the parasites were resuspended in the same buffer at 10^9/mL. An aliquot of 50 μL of this suspension was added to a cuvette containing Safranin O, 2.5 μM and Succinate 1 mM in final volume of 2 mL of the intracellular buffer. The fluorescence was measured with a Hitachi 7000 spectrofluorometer with settings Ex. 495/Em. 586. Once the baseline fluorescence was stable, 30 μM digitonin was added to permeabilize the parasites. Eighty five seconds after permeabilization, the THQ derivatives, dissolved in DMSO, were added. Five micromolars of FCCP (Carbonyl cyanide-4-(trifluoromethoxy) phenylhydrazone) was used as an uncoupler reference for calculations and its effect was considered 100%. We used similar conditions for measuring the mitochondrial membrane potential of mammalian cells with the following changes: the mammalian cells were resuspended at 10^8/mL. We also used 50 μL of this suspension for each experiment in a total volume of 2 mL. The substrate used for mammalian cells was 5 mM glutamate and 5 mM malate. A higher concentration of digitonin (50 μM) was used to permeabilize the mammalian cells. The compounds were added at ~400 s after permeabilization. Each experiment was repeated at least three times in duplicates. Statistical analysis, unpaired student t-test, was performed using GraphPad Prism 8.0 (GraphPad Software, Inc., San Diego, CA).
Mitochondrial membrane potential measurements were performed with permeabilized T. gondii tachyzoites in suspension using safranin O, which loads into polarized membranes [see section Materials and Methods in the Supplemental Materials (Vercesi et al., [1998])]. T. gondii tachyzoites were permeabilized with digitonin to allow the mitochondrial substrate succinate to cross the membrane and energize the mitochondrion. The fluorescence of safranin O, which loads into energized mitochondria was used to measure the membrane potential. The energized state of the mitochondrion is observed by a decrease in fluorescence (Figures 3A,C,E). Trifluoromethoxy carbonylcyanide phenylhydrazone (FCCP) was used to depolarize the membrane, which is observed as an increase in fluorescence (Figures 3A,B). JAG21 depolarized the membrane potential even at concentrations as low as 2 nM (Figures 3C,D). JAG21 and Atovaquone had similar effects on the mitochondrial membrane potential (Figure 3D). […]

[4] = tested on: Human Foreskin Fibroblast (HFF); experiment: Cytotoxicity assay, WST-1 cell proliferation reagent on HFF; type: cell-based
Method: Toxicity assays used WST-1 cell proliferation reagent (Roche) as in Fomovska et al. ([2012a]). HFF were grown on a flat, clear-bottomed, black 96-well plate. Confluent HFF were treated with inhibitory compounds at concentrations of 10 and 50 μM. Compounds were diluted in IMDM-C, and 20 μL were added to each designated well, with triplicates for each condition. A gradient with 2-folddecreasing concentrations of DMSO from 10 to 0% in colorless, translucent IMDM-C was used as a control. The plate was incubated for 72 h at 37°C. Ten microlitre WST-1 reagent (Roche) were added to each well. Cells were incubated for 30–60 min. Absorbance was read using a fluorimeter at 420 nm. A higher degree of color change (and absorbance) indicated mitochondrial activity and cell viability.

[5] = C2B, multi-drug resistant strain with resistance against atovaquone, read-out: SYBR Green C2B IC50
[6] = D6, drug sensitive strain, read-out: SYBR Green D6 IC50
[7] = TM91-C235, multi-drug resistant strain, read-out: SYBR Green C235 IC50
[8] = W2, chloroquine resistant strain, read-out: SYBR Green W2 IC50

SMILES | number of mice left at 42 (T. gondii RPS13Δ; Experiment 1, 6 (Tafenoquine+JAG21)) | number of mice left at 37 (T. gondii RPS13Δ; Experiment 2, 9 (Tafenoquine+JAG21)) | IC50 [1] | IC50 [2, 5] | IC50 [2, 6] | IC50 [2, 7] | IC50 [2, 8] | effect on mitochondrial membrane potential [3] | Toxicity [4]
COc1cc(C)c2c(Oc3cccc(C(F)(F)F)c3)c(OC)cc(NC(C)CCCN)c2n1 (stereo not drawn) [TAF, tafenoquine, reference compound] | 1 | 2 | – | – | – | – | – | – | –
Cc1[nH]c2c(c(=O)c1-c1ccc(Oc3cccc(C(=O)O)c3)cc1)CCCC2 [JAG047] | – | – | > 10 µM | 7.78 µM | 3.75 µM | 12.6 µM | 9.07 µM | almost no effect | –
COc1ccc(Oc2ccc(-c3c(C)[nH]c4c(c3=O)CCCC4)cc2)cc1OC [AS033] | – | – | – | – | – | – | – | – | 5 µM
Cc1[nH]c2c(c(=O)c1-c1ccc(Oc3ccc(C(=O)O)cc3)cc1)CCCC2 [JAG046] | – | – | > 10 µM | > 20 µM | 6.72 µM | > 20 µM | > 20 µM | almost no effect | –
